Assay results taken from patent publication US20210008118A1, “METHOD FOR ENHANCING MIGRATION OF STEM CELLS INTO CANCER CELLS” (GACHON UNIVERSITY OF INDUSTRY-ACADEMIC COOPERATION …, priority 2019, published 2021).

Test system: mesenchymal stem cells (BMMSCs, ADMSCs) migrating into cancer cells (A549, H1975, PANC-1, U87MG)
Test: Transwell migration of stem cells treated with ion channel inhibitor DIDS or ion channel antibodies
Assay type: cell-based
Conditions: 500 μM DIDS or ion channel antibodies; all cancer cells used (A549, H1975, PANC-1, U87MG)
Protocol: In vitro mobility measurement of stem cells according to an embodiment of the present invention was performed using a transwell membrane bilayer plate having a pore size of 8 μm. Cancer cells for stimulating the stem cells were cultured in the layer under the membrane, and the stem cells were cultured in the upper chamber to allow the cells to penetrate downward. At this time, the mobility was measured through the number of stem cells infiltrated the membrane.
In order to investigate the effect of ion channel activity on the ability of stem cells to migrate into cancer cells, the present inventors performed an analysis similar to Example 1-1 using DIDS (4,4′-Diisothiocyano-2,2′-stilbenedisulfonic acid) which is an ion channel inhibitor and antibodies specifically binding to ion channels (SLC4A4, SLC4A7). Particularly, in the case of lung cancer cells, 5×10^4 of bone marrow-derived mesenchymal stem cells (BMMSCs) as a control group and lung cancer cells (A549 and H1975) as an experimental group were dispensed onto the lower well, respectively, and cultured at 37° C. for 24 hours. […] Subsequently, stem cells migrated into the lower well through the transwell membrane were counted trough a confocal fluorescence microscope in order to measure their mobility (FIGS. 3A to 4D).

For `O=S(=O)(O)c1cc(N=C=S)ccc1C=Cc1ccc(N=C=S)cc1S(=O)(=O)O` [DIDS, 4,4′-Diisothiocyano-2,2′-stilbenedisulfonic acid], the “ability of the mesenchymal stem cells to migrate into cancer cells” value was “decreased significantly”.
